Laboratory results as given in US20250234824A1, “MARKERS ASSOCIATED WITH S[…]” (Syngenta Crop Protection AG, priority 2022, published 2025).

System: maize haploids
Test: Colchicine doubling treatment of BC3 haploids, pollen and kernel phenotypes in the field
Assay type: in vivo
Details: for Average Number of Days of Pollen per Plant / Average Number of Kernels per Plant / Percent of Plants with Ears >5 kernels: colchicine-treated haploids
Source text: Genotyping was used to identify heterozygotes at SCD-QTL1, and those materials were then crossed by a haploid inducer, embryos isolated from the immature ears, and haploids regenerated for transplant into the field. Immediately after isolation, embryos from each of the 17 BC3 populations were split into 2 treatment groups. […] All lines were planted across three replications of the trial over the course of approximately 6 months, and the data was pooled for analysis.

[1] = BC3 recurrent parent Line 1, SCD Allele
[2] = BC3 recurrent parent Line 1, Unfavorable Allele
[3] = BC3 recurrent parent Line 2, SCD Allele
[4] = BC3 recurrent parent Line 2, Unfavorable Allele
[5] = BC3 recurrent parent Line 3, SCD Allele
[6] = BC3 recurrent parent Line 3, Unfavorable Allele
[7] = BC3 recurrent parent Line 4, SCD Allele
[8] = BC3 recurrent parent Line 4, Unfavorable Allele
[9] = BC3 recurrent parent Line 5, SCD Allele
[10] = BC3 recurrent parent Line 5, Unfavorable Allele
[11] = BC3 recurrent parent Line 6, SCD Allele
[12] = BC3 recurrent parent Line 6, Unfavorable Allele
[13] = BC3 recurrent parent Line 7, SCD Allele
[14] = BC3 recurrent parent Line 7, Unfavorable Allele
[15] = BC3 recurrent parent Line 8, SCD Allele
[16] = BC3 recurrent parent Line 8, Unfavorable Allele
[17] = BC3 recurrent parent Line 9, SCD Allele
[18] = BC3 recurrent parent Line 9, Unfavorable Allele
[19] = BC3 recurrent parent Line 10, SCD Allele
[20] = BC3 recurrent parent Line 10, Unfavorable Allele
[21] = BC3 recurrent parent Line 11, SCD Allele
[22] = BC3 recurrent parent Line 11, Unfavorable Allele
[23] = BC3 recurrent parent Line 12, SCD Allele
[24] = BC3 recurrent parent Line 12, Unfavorable Allele
[25] = BC3 recurrent parent Line 13, SCD Allele
[26] = BC3 recurrent parent Line 13, Unfavorable Allele
[27] = BC3 recurrent parent Line 14, SCD Allele
[28] = BC3 recurrent parent Line 14, Unfavorable Allele
[29] = BC3 recurrent parent Line 15, SCD Allele
[30] = BC3 recurrent parent Line 15, Unfavorable Allele
[31] = BC3 recurrent parent Line 16, SCD Allele
[32] = BC3 recurrent parent Line 16, Unfavorable Allele
[33] = BC3 recurrent parent Line 17, SCD Allele
[34] = BC3 recurrent parent Line 17, Unfavorable Allele

## COc1cc2c(c(OC)c1OC)-c1ccc(OC)c(=O)cc1[C@@H](NC(C)=O)CC2 [Colchicine, colchicine]
[1]
  Average Number of Days of Pollen per Plant: 3.1 days
  Average Number of Kernels per Plant: 23.8 kernels
  Percent of Plants with Ears >5 kernels: 53.9%
[2]
  Average Number of Days of Pollen per Plant: 2.4 days
  Average Number of Kernels per Plant: 13.5 kernels
  Percent of Plants with Ears >5 kernels: 26.6%
[3]
  Average Number of Days of Pollen per Plant: 1.72 days
  Average Number of Kernels per Plant: 5 kernels
  Percent of Plants with Ears >5 kernels: 12.0%
[4]
  Average Number of Days of Pollen per Plant: 2.35 days
  Average Number of Kernels per Plant: 9.62 kernels
  Percent of Plants with Ears >5 kernels: 13.5%
[5]
  Average Number of Days of Pollen per Plant: 1.76 days
  Average Number of Kernels per Plant: 7.62 kernels
  Percent of Plants with Ears >5 kernels: 6.9%
[6]
  Average Number of Days of Pollen per Plant: 1.45 days
  Average Number of Kernels per Plant: 9.03 kernels
  Percent of Plants with Ears >5 kernels: 9.1%
[7]
  Average Number of Days of Pollen per Plant: 0.04 days
  Average Number of Kernels per Plant: 0 kernels
  Percent of Plants with Ears >5 kernels: 0.0%
[8]
  Average Number of Days of Pollen per Plant: 0.57 days
  Average Number of Kernels per Plant: 7.1 kernels
  Percent of Plants with Ears >5 kernels: 13.2%
[9]
  Average Number of Days of Pollen per Plant: 2.34 days
  Average Number of Kernels per Plant: 2.31 kernels
  Percent of Plants with Ears >5 kernels: 3.1%
[10]
  Average Number of Days of Pollen per Plant: 2.19 days
  Average Number of Kernels per Plant: 4.88 kernels
  Percent of Plants with Ears >5 kernels: 7.6%
[11]
  Average Number of Days of Pollen per Plant: 1.675 days
  Average Number of Kernels per Plant: 11.23 kernels
  Percent of Plants with Ears >5 kernels: 25.0%
[12]
  Average Number of Days of Pollen per Plant: 2.01 days
  Average Number of Kernels per Plant: 19.09 kernels
  Percent of Plants with Ears >5 kernels: 27.2%
[13]
  Average Number of Days of Pollen per Plant: 1.58 days
  Average Number of Kernels per Plant: 53.5 kernels
  Percent of Plants with Ears >5 kernels: 37.9%
[14]
  Average Number of Days of Pollen per Plant: 1.298 days
  Average Number of Kernels per Plant: 54.18 kernels
  Percent of Plants with Ears >5 kernels: 29.9%
[15]
  Average Number of Days of Pollen per Plant: 1.72 days
  Average Number of Kernels per Plant: 37.34 kernels
  Percent of Plants with Ears >5 kernels: 31.1%
[16]
  Average Number of Days of Pollen per Plant: 1.466 days
  Average Number of Kernels per Plant: 26.17 kernels
[17]
  Average Number of Days of Pollen per Plant: 2.58 days
  Average Number of Kernels per Plant: 27.9 kernels
[18]
  Average Number of Days of Pollen per Plant: 2.51 days
  Average Number of Kernels per Plant: 24.067 kernels
  Percent of Plants with Ears >5 kernels: 29.3%
[19]
  Average Number of Days of Pollen per Plant: 1.12 days
  Average Number of Kernels per Plant: 23.17 kernels
[20]
  Average Number of Days of Pollen per Plant: 1.005 days
  Average Number of Kernels per Plant: 13.75 kernels
  Percent of Plants with Ears >5 kernels: 26.4%
[21]
  Average Number of Days of Pollen per Plant: 1.09 days
  Average Number of Kernels per Plant: 4.97 kernels
  Percent of Plants with Ears >5 kernels: 8.7%
[22]
  Average Number of Days of Pollen per Plant: 1.2 days
  Average Number of Kernels per Plant: 18.11 kernels
  Percent of Plants with Ears >5 kernels: 17.5%
[23]
  Average Number of Days of Pollen per Plant: 1.25 days
  Average Number of Kernels per Plant: 19.56 kernels
  Percent of Plants with Ears >5 kernels: 28.5%
[24]
  Average Number of Days of Pollen per Plant: 0.96 days
  Average Number of Kernels per Plant: 22.12 kernels
  Percent of Plants with Ears >5 kernels: 21.3%
[25]
  Average Number of Days of Pollen per Plant: 1.45 days
  Average Number of Kernels per Plant: 32.5 kernels
  Percent of Plants with Ears >5 kernels: 25.8%
[26]
  Average Number of Days of Pollen per Plant: 1.33 days
  Average Number of Kernels per Plant: 24.5 kernels
  Percent of Plants with Ears >5 kernels: 24.7%
[27]
  Average Number of Days of Pollen per Plant: 1.28 days
  Average Number of Kernels per Plant: 31 kernels
  Percent of Plants with Ears >5 kernels: 29.9%
[28]
  Average Number of Days of Pollen per Plant: 1.1 days
  Average Number of Kernels per Plant: 40.57 kernels
  Percent of Plants with Ears >5 kernels: 26.2%
[29]
  Average Number of Days of Pollen per Plant: 2.66 days
  Average Number of Kernels per Plant: 45.47 kernels
  Percent of Plants with Ears >5 kernels: 64.9%
[30]
  Average Number of Days of Pollen per Plant: 2.81 days
  Average Number of Kernels per Plant: 72.9 kernels
  Percent of Plants with Ears >5 kernels: 72.2%
[31]
  Average Number of Days of Pollen per Plant: 1.65 days
  Average Number of Kernels per Plant: 31.56 kernels
[32]
  Average Number of Days of Pollen per Plant: 1.67 days
  Average Number of Kernels per Plant: 28.03 kernels
  Percent of Plants with Ears >5 kernels: 37.6%
[33]
  Average Number of Days of Pollen per Plant: 2.63 days
  Average Number of Kernels per Plant: 52.86 kernels
  Percent of Plants with Ears >5 kernels: 49.1%
[34]
  Average Number of Days of Pollen per Plant: 2.51 days
  Average Number of Kernels per Plant: 58.48 kernels
  Percent of Plants with Ears >5 kernels: 50.4%
colchicine-treated groups compared with SCD-QTL1 alone, 17 BC3 populations pooled
  pollen and kernel production: performed overall better in both pollen and kernel production than the SCD-QTL1 alone
